How the values were obtained:
[1] = tested on: Kyn levels in BxPC3 cells (kynurenine generated by IDO1); assay: Cellular Kyn assay (automated Kyn screening assay); format: cell-based; conditions: Homo sapiens, BXPC-3, 48 h, IFN-γ, L-Trp and compounds 48 h, mean ± SD, read-out: IC50 (Kyn assay), reduction of kynurenine levels
recombinant human IDO1 = target: T1, recombinant human IDO1 (Homo sapiens, UniProt P14902); assay: IDO1 enzymatic assay in vitro; format: biochemical; conditions: at 14 µM; pre-incubation 37 °C 45 min; mean ± SD
T1 construct: The GST-tag of IDO1 was removed to obtain untagged full-length IDO1l using PreScission protease; GST (N, cleaved yes); made in house; own inference

[2] = tested on: global proteome of SKOV-3 cells; assay: TMT-based global proteome profiling; format: cell-based; conditions: 10 µM vs DMSO, 4 h, LC-MS/MS
Protocol: Figure 3 Comparison of IDO1 degradation efficiency for selected compounds. a) Detection of IDO1 levels using immunostaining. IFN‐γ stimulated HeLa cells were treated with the compounds for 24 h. IDO1 protein abundance was detected with IDO1 antibody. Data are mean values ± SD, n = 3. b) IDO1 protein levels in BxPC3 cells upon compounds treatment were detected using immunoblotting. BxPC3 cells were treated with IFN‐γ for 24 h prior to washout, followed by addition of compounds. Representative blot and quantified band intensities are shown (mean values ± SD, n = 3). See Figure S11a S12a for the uncropped blots. c) Key functions of hit compounds that influence degradation efficiency. d) Heatmap for IDO degradation efficiency. IDO1 levels were monitored as described in (c). See Table S1 for mean values and Figure S11b for the uncropped blots. e)–g) Dose dependent degradation of IDO1 protein in BxPC3 cells treated with iDeg‐7–9 and detected as described in (c). Representative data of n = 3 except for iDeg‐9 (n = 4). See Figure S12 S13 for the uncropped blots. h) Quantification of IDO1 protein levels from e‐g (mean values ± SD, n = 3 except for iDeg‐9 (n = 4). i) Tabulated inhibition and degradation ability of iDeg‐6–9. ND: not detected. j) Volcano plot of iDeg‐6‐induced changes on the global proteome. SKOV‐3 cells were treated with 10 µM iDeg‐6 or DMSO for 4 h followed by protein extraction, tryptic digest and LC‐MS/MS analysis (n = 4). Plot generated using UMSAP (T 0 = 0.5, S 0 = 0.5).
Cells were collected after trypsinization. The collected cell suspension was centrifugated and washed twice by cold PBS before lysate preparation by means of four freeze-thaw cycles in PBS containing 0.4% NP-40 alternative with protease (Roche, #5892970001) and phosphatase inhibitors (Roche, #4906845001). Protein concentration was determined by DC protein assay (BIO-RAD, #5000116) and 200 μg of protein lysates were subjected to the sample preparation and MS analysis. Protein lysates were dissolved in equal volume of 100 mM triethylammonium bicarbonate (TEAB) buffer supplemented with 7.5 µL of a 200 mM Tris(2-carboxyethyl) phosphine (TCEP) followed by an incubation step at 55 °C for 1 h. Afterwards, 7.5 µL of 375 mM iodoacetamide were added and samples were incubated for another 30 min at room temperature in the dark prior to acetone-based protein precipitation (pre-incubation at -20 °C overnight). On the next day, samples were centrifuged at 8,000 x g and 4 °C, the supernatant was aspired and protein pellets were dried at room temperature. Pellets were dissolved in digestion buffer (trypsin: protein ratio-1:50 (w/w)), in which trypsin was pre-dissolved in 10 mM HCl, and then diluted in 100 mM TEAB buffer to a final concentration of 0.4 µg/µL trypsin in 10 mM HCl, then the sample was incubated with shaking overnight at 37 °C. On the next day, samples were labelled with TMT10plex reagents (Thermo Scientific, WL320956) following the instruction of the TMT10plex Mass Tag Labeling Kit. Namely, 20 µL of the TMTpro Label reagent was added to each 100 µL sample (100 µg protein) followed by incubation for 2 h at room temperature while shaking. Afterwards, 5 µL of 5% hydroxylamine was added into each sample, and the samples were incubated for 15 min to quench the reaction. Equal amounts of each sample were combined in a new tube. The pooled samples were dried in a SpeedVac at 30 °C until the liquid evaporated completely.
All solvents used during MS measurements were LC-MS grade. The TMTpro labeled peptides were cleaned up and fractionated using a reversed-phase fractionation spin column (Thermo Fisher Scientific ^#84868) following the instructions of the Pierce™ High pH Reversed-Phase Peptide Fractionation kit. Briefly, the combined labeled samples (40 µg) were fully dissolved in 300 μL of 0.1% TFA and loaded onto an activated spin column, followed by centrifugation at 3000 g for 2 minutes. […]

[3] = tested on: IDO1 mRNA levels in SKOV-3 cells; assay: RT-qPCR of IDO1 expression; format: cell-based; conditions: 24 h
Protocol: a, IDO1 mRNA levels in SKOV-3 cells.
To assess IDO1 gene expression in the SKOV3 cell line, SKOV3 cells were seeded into 24-well plates. After 24 h, the cells were treated with the indicated concentrations of compounds, followed by an additional 24 h incubation.

[4] = target: IDO1 protein levels in BxPC3 cells (Homo sapiens, UniProt P14902); assay: IDO1 immunoblotting (degradation); format: cell-based; design: endogenous in cells; host or cells: BxPC3 (DSMZ), IFN-γ stimulated; conditions: 24 h incubation, mean ± SD
Chain of IDO1 protein levels in BxPC3 cells (P14902 whole entry): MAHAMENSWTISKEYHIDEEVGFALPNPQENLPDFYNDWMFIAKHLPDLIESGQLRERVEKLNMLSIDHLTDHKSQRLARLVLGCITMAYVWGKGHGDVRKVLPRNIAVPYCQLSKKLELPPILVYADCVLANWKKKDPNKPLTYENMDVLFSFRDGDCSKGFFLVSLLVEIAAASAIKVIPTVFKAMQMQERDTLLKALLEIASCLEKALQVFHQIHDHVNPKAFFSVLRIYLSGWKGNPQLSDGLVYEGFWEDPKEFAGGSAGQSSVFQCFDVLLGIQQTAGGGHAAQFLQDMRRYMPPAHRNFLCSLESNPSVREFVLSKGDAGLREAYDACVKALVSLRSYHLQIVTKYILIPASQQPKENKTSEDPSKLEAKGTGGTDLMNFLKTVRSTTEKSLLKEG

T1 sequence (P14902 whole entry): as above

C#Cc1ccc(NC(=O)OC[C@]23CN(S(=O)(=O)c4ccc(C(C)(C)C)cc4C)C[C@H]2C[C@H]2C[C@@H]3C2(C)C)cc1 [98 (iDeg-6), ((3aS,4R,6R,7aS)-2-((4-(tert-butyl)-2-methylphenyl)sulfonyl)-5,5-dimethyloctahydro-3aH-4,6-methanoisoindol-3a-yl)methyl (4-ethynylphenyl)carbamate]
IC50 [1]: 14 ± 3 nM | inhibition at 14 µM (recombinant human IDO1): 40 ± 7% | Difference in protein level: ATP6V0D1 [2]: 0.47 | Difference in protein level: COX6C [2]: 0.79 | Difference in protein level: COX7A2 [2]: 0.74 | Difference in protein level: COX7C [2]: 0.6 | Difference in protein level: ERLIN2 [2]: 0.69 | Difference in protein level: IDO1 [2]: -0.53 | Difference in protein level: MT-CO2 [2]: 0.44 | Difference in protein level: MT-ND2 [2]: 0.52 | Difference in protein level: NDUFA3 [2]: 0.44 | Difference in protein level: NDUFA9 [2]: 0.58 | Difference in protein level: NDUFB3 [2]: 0.53 | Difference in protein level: NDUFB11 [2]: 0.51 | Difference in protein level: NDUFC2 [2]: 0.57 | Difference in protein level: NDUFS5 [2]: 0.51 | Difference in protein level: PHB [2]: 0.45 | Difference in protein level: PHB2 [2]: 0.54 | Difference in protein level: TCIRG1 [2]: 0.37 | Difference in protein level: TOMM5 [2]: 0.56 | Difference in protein level: TOMM22 [2]: 0.6 | Difference in protein level: TOMM40 [2]: 0.45 | Difference in protein level: UQCRB [2]: 0.52 | Difference in protein level: VDAC3 [2]: 0.52 | IDO1 transcription (in words) [3]: without affecting its transcription | Max. degradation (%) ([4]; 10 nM): 61 ± 12 (5) % | Max. degradation (%) ([4]; 100 nM): 74 ± 13 (5) %

From paper PMC12811658, “Design, Synthesis, and Structural Evolution of Pseudo‐Natural Product IDO1 Inhibitors and Degraders” (Angewandte Chemie (International Ed. in English), 2025)
